In assay [1] the target is T1, Recombinant ROCK1 (amino acids 1-477) (Homo sapiens, UniProt Q13464).
T1 construct: Recombinant ROCK1 (amino acids 1-477); by word order, ROCK1 from Carna Biosciences
Put plainly: ROCK inhibition assay, LANCE Ultra TR-FRET kinase assay (ROCK1). Type of assay: biochemical. The settings on record: 1 μM ATP, 50 nM ULight-CREBtide substrate. An outline of the steps:
(§1)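 Reaction buffer 50 mM HEPES pH 7.5, 10 mM MgCl2, 1 mM EGTA, 2 mM DTT; kinase, ULight-CREBtide (50 nM) and ATP (ROCK1 1 μM, ROCK2 4 μM) react 1 h at room temperature. Phospho-Ser133 detected by europium antibody after 10 mM EDTA stop, TR-FRET ex 320 nm; IC50 calculated.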

Assay [2] concerns the target T2, Recombinant ROCK2 (amino acids 5-554) (Homo sapiens, UniProt O75116).
T2 construct: ROCK2 (amino acids 5-554); by word order, ROCK2 from SignalChem
Put plainly: ROCK inhibition assay, LANCE Ultra TR-FRET kinase assay (ROCK2). It counts as biochemical. The conditions noted are these: 4 μM ATP, 50 nM ULight-CREBtide substrate. An outline of the steps:
as §1

pIC50: −log10 of the molar value. Where only a bound is given, the exact number is not on record here.

T1 sequence (Q13464 1-477): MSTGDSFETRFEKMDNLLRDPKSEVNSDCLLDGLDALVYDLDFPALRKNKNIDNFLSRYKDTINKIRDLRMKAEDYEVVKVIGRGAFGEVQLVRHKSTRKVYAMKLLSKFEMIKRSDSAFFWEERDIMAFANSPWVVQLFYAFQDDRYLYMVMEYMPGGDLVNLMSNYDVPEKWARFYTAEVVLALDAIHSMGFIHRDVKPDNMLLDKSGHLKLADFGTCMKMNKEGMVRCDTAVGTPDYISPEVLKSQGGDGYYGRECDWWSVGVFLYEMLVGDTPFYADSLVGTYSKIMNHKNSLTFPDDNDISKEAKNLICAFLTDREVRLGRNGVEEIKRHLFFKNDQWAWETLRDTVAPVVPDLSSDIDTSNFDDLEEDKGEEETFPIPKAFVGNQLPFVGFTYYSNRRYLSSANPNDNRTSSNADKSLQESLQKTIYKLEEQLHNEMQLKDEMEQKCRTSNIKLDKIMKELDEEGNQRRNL
T2 sequence (O75116 5-554): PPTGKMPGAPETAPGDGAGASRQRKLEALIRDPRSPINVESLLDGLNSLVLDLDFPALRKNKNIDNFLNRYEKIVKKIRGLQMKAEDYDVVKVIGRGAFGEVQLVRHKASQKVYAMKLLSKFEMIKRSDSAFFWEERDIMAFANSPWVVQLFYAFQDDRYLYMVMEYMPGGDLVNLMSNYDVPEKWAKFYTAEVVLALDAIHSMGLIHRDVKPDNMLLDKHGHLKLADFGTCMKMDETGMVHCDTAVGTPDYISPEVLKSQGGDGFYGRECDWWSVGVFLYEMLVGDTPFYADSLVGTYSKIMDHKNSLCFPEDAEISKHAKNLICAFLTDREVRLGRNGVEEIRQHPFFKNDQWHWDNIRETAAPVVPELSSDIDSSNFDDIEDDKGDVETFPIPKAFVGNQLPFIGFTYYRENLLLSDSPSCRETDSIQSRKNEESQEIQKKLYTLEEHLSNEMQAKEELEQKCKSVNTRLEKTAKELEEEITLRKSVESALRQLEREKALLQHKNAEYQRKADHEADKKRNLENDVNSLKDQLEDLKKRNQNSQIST

In general, pIC50 refers to −log10 of the IC50, conventionally taken in molar units. Regarding `COc1cccc(Cn2cnc3cc(-c4ccnc(N)c4)ccc3c2=O)c1` [Compound 364], the results for the pIC50 in assay [1] and in assay [2] were 7.00 to 7.96 and 7.00 to 8.00, respectively.

With `CNC(=O)c1cc(Cl)cc(Cn2ccc3cc(-c4conc4C)ccc3c2=O)c1` [Compound 319], the results for the pIC50 in assay [1] and in assay [2] were 6.30 to 7.00 and 7.00 to 8.00, respectively.

For the molecule `CNC(=O)c1cccc(Cn2ccc3cc(C4=CCOC4)ccc3c2=O)c1` [Compound 304], the pIC50 in assay [1] and in assay [2] was below 6.30 in each case.

Regarding `Cc1nocc1-c1ccc2c(=O)n(Cc3cccc(C(=O)Nc4nc5c(s4)CCN(C(C)C)C5)c3)ccc2c1` [Compound 95], the negative-log IC50 (pIC50) in assay [1] is 7.00 to 7.96; in assay [2] it was above 8.00.

On to `O=c1c2ccc(-c3cn[nH]c3Cl)cc2ncn1C(CO)c1cccc(Cl)c1` (centres unmarked) [Compound 487], for which the pIC50 in assay [1] was 7.00 to 7.96; in assay [2] it was 7.00 to 8.00.

Turning to `O=C(NCC1COC1)c1cc(F)cc(Cn2ccc3cc(-c4c[nH]nc4C(F)(F)F)ncc3c2=O)c1` [Compound 258], the figures for the pIC50 in assay [1] and in assay [2] were 7.00 to 7.96 and above 8.00, respectively.

`CNC(=O)c1cccc(Cn2ccc3cc(N4CC5CC(C4)O5)ccc3c2=O)c1` [Compound 330]: the pIC50 in assay [1] and in assay [2] was below 6.30 throughout.

Take `Cc1nocc1-c1cc2ccn(Cc3cc(F)cc(C(=O)NCC4CCN(C)CC4)c3)c(=O)c2cn1` [Compound 265]: the pIC50 in assay [1] was 7.00 to 7.96; in assay [2], above 8.00.

For the molecule `O=C(NCC1CCNCC1)c1cc(F)cc(Cn2ccc3cc(-c4c[nH]nc4C(F)F)ccc3c2=O)c1` [Compound 61], the pIC50 in assay [1] and in assay [2] was above 8.00 each time.

Consider `Cn1ccc(NC(=O)c2cc(F)cc(Cn3ccc4cc(-c5ccnc(N)c5)ccc4c3=O)c2)n1` [Compound 201], for which the values for the pIC50 in assay [1] and in assay [2] were 7.00 to 7.96 and above 8.00, respectively.

With `CNC(=O)c1cccc([C@@H](C)n2cnc3cc(-c4cn[nH]c4Cl)ncc3c2=O)c1` [Compound 569], the pIC50 in assay [1] and in assay [2] was above 8.00 in each case.

`CC(=O)Nc1cccc(Cn2ccc3cc(-c4cn[nH]c4)ccc3c2=O)c1` [Compound 352]: the figures for the pIC50 in assay [1] and in assay [2] were 6.30 to 7.00 and 7.00 to 8.00, respectively.

On to `C[C@H](c1cccc(C(=O)NC2CCN(C)CC2)c1)n1cnc2cc(-c3cn[nH]c3C(F)(F)F)ccc2c1=O` [Compound 450], for which the pIC50 in assay [1] and in assay [2] was above 8.00 each time.

Take `Cc1nocc1-c1ccc2c(=O)n(Cc3cc(F)cc(C(=O)Nc4nc5c(s4)CCN(C)C5)c3)ccc2c1` [Compound 158]: the pIC50 in assay [1] is 7.00 to 7.96; in assay [2] it was above 8.00.

With `O=C(NCC1CCOCC1)c1cc(F)cc(Cn2ccc3cc(-c4c[nH]nc4C(F)F)ccc3c2=O)c1` [Compound 60], the values for the pIC50 in assay [1] and in assay [2] were 7.00 to 7.96 and above 8.00, respectively.

`O=C(N[C@H]1C[C@H](O)C1)c1cc(F)cc(Cn2ccc3cc(N4CCOCC4)ccc3c2=O)c1` [Compound 210]: the pIC50 in assay [1] was below 6.30; in assay [2], 6.30 to 7.00.

As for `Cn1nccc1-c1ccc2c(=O)n(Cc3cccc(C(=O)NC4CCOCC4)c3)ccc2c1` [Compound 104], the pIC50 in assay [1] is 6.30 to 7.00; in assay [2], 7.00 to 8.00.

On to `COc1cccc([C@@H](CO)N2CNc3cc(-c4cnoc4C)ccc3C2=O)c1` [Compound 529], for which the pIC50 in assay [1] and in assay [2] was below 6.30 throughout.

In the case of `Cc1n[nH]cc1-c1ccc2c(=O)n(Cc3cccc(C(=O)NCc4cccc(NS(C)(=O)=O)c4)c3)ccc2c1` [Compound 33], the pIC50 is below 6.30 in assay [1] and 6.30 to 7.00 in assay [2].

In the case of `CN1CCC(CNC(=O)c2cccc(Cn3ccc4cc(-c5c[nH]nc5C(F)F)ccc4c3=O)c2)CC1` [Compound 56], the pIC50 in assay [1] and in assay [2] was above 8.00 throughout.

`CNC(=O)c1cccc(Cn2cnc3cc(-c4cnnn4C)ccc3c2=O)c1` [Compound 439]: the pIC50 in assay [1] and in assay [2] was below 6.30 in each case.

For the molecule `O=C(CCc1ccccn1)Nc1cccc(Cn2ccc3cc(-c4c[nH]nc4C(F)(F)F)ccc3c2=O)c1` [Compound 340], the pIC50 is 7.00 to 7.96 in assay [1] and above 8.00 in assay [2].

Consider `CN1CCC(CNC(=O)c2cc(F)cc(Cn3ccc4cc(-c5c[nH]nc5C(F)(F)F)ccc4c3=O)c2)CC1` [Compound 134], for which the pIC50 is 7.00 to 7.96 in assay [1] and above 8.00 in assay [2].

With `Cn1nccc1-c1ccc2c(=O)n(Cc3cccc(C(=O)NCC4CCN(CC(F)F)CC4)c3)ccc2c1` [Compound 170], the results for the pIC50 in assay [1] and in assay [2] were 7.00 to 7.96 and above 8.00, respectively.

For the molecule `O=C(N[C@H]1CC[C@@H](O)CC1)c1cccc(Cn2ccc3cc(N4CCOCC4)ccc3c2=O)c1` [Compound 214], the pIC50 in assay [1] is below 6.30; in assay [2] it was 6.30 to 7.00.

For the molecule `COc1cccc(Cn2cnc3cc(-c4ccnn4C)ccc3c2=O)c1` [Compound 358], the pIC50 is 7.00 to 7.96 in assay [1] and 7.00 to 8.00 in assay [2].

On to `O=C(NC1CCN(C2COC2)CC1)c1cccc(Cn2cnc3cc(-c4cn[nH]c4C(F)(F)F)ccc3c2=O)c1` [Compound 377], for which the pIC50 was 7.00 to 7.96 in assay [1] and above 8.00 in assay [2].

Turning to `[2H]C([2H])([2H])NC(=O)c1cccc(Cn2ccc3cc(-c4cc[nH]c4C)ncc3c2=O)c1` [Compound 232], the results for the pIC50 in assay [1] and in assay [2] were 7.00 to 7.96 and above 8.00, respectively.

Take `CNC(=O)c1cccc(Cn2ccc3cc(-c4conc4C)cnc3c2=O)c1` [Compound 243]: the negative logarithm of the IC50 (pIC50) in assay [1] is below 6.30; in assay [2], 6.30 to 7.00.

With `Cc1nocc1-c1ccc2c(=O)n(Cc3cccc(C(=O)NCC4CC4)c3)ccc2c1` [Compound 68], the pIC50 in assay [1] was 7.00 to 7.96; in assay [2], 7.00 to 8.00.

For `CNC(=O)c1cccc([C@@H](C)n2cnc3cc(-c4ccnc(N)c4)ccc3c2=O)c1` [Compound 481], the pIC50 is 6.30 to 7.00 in assay [1] and 7.00 to 8.00 in assay [2].

Take `O=C(NC1COC1)c1cc(F)cc(Cn2ccc3cc(N4CCOCC4)ccc3c2=O)c1` [Compound 208]: the pIC50 was below 6.30 in assay [1] and 6.30 to 7.00 in assay [2].

As for `O=c1c2ccc(-c3c[nH]nc3C(F)(F)F)cc2ccn1Cc1cccc(O)c1` [Compound 7], the figures for the pIC50 in assay [1] and in assay [2] were 6.30 to 7.00 and 7.00 to 8.00, respectively.

For `CNC(=O)c1cc(Cl)cc(Cn2ccc3cc(-c4ccnn4C)ccc3c2=O)c1` [Compound 324], the pIC50 in assay [1] and in assay [2] was 6.30 to 7.00 throughout.

On to `CNC(=O)c1cc([C@@H](C)n2cnc3cc(-c4cn[nH]c4C(F)(F)F)ccc3c2=O)ccc1F` [Compound 456], for which the pIC50 in assay [1] was 6.30 to 7.00; in assay [2], 7.00 to 8.00.

As for `C[C@H](c1cccc(C(=O)NCc2ccc(F)nc2)c1)n1cnc2cc(-c3cn[nH]c3Br)ccc2c1=O` [Compound 516], the pIC50 in assay [1] and in assay [2] was above 8.00 throughout.

Take `CNC(=O)c1cccc(C(C)n2cc(CCO)c3cc(-c4cn[nH]c4C(F)(F)F)ccc3c2=O)c1` (centres unmarked) [Compound 549]: the figures for the pIC50 in assay [1] and in assay [2] were 7.00 to 7.96 and above 8.00, respectively.

As for `C[C@H](c1cccc(C(=O)NCCO)c1)n1cnc2cc(-c3cn[nH]c3C(F)F)ccc2c1=O` [Compound 459], the pIC50 in assay [1] was 6.30 to 7.00; in assay [2] it was 7.00 to 8.00.

As to `CN1CCC(CNC(=O)c2cc(F)cc(Cn3ccc4cc(-c5c[nH]nc5C(F)(F)F)ncc4c3=O)c2)CC1` [Compound 257], the pIC50 in assay [1] and in assay [2] was above 8.00 throughout.

Regarding `CNC(=O)c1cccc(Cn2cc(CCN(C)C)c3cc(-c4c[nH]nc4N)ccc3c2=O)c1` [Compound 567], the negative logarithm of the IC50 (pIC50) in assay [1] was 7.00 to 7.96; in assay [2] it was above 8.00.

For `O=C(NCC1COC1)c1cccc(Cn2ccc3cc(-c4c[nH]nc4C(F)(F)F)ccc3c2=O)c1` [Compound 53], the pIC50 in assay [1] was 7.00 to 7.96; in assay [2], above 8.00.

In the case of `CNC(=O)c1cc(F)cc([C@@H](C)n2cnc3cc(-c4cn[nH]c4C(F)(F)F)ccc3c2=O)c1` [Compound 454], the pIC50 is 7.00 to 7.96 in assay [1] and above 8.00 in assay [2].

Consider `CNC(=O)c1cc(Cl)cc(Cn2ccc3cc(-c4cn[nH]c4C(F)(F)F)ccc3c2=O)c1` [Compound 285], for which the pIC50 in assay [1] was 6.30 to 7.00; in assay [2], 7.00 to 8.00.

In the case of `[2H]C([2H])([2H])NC(=O)c1cccc(Cn2cnc3cc(-c4cn[nH]c4C(F)F)ccc3c2=O)c1` [Compound 392], the pIC50 in assay [1] is 7.00 to 7.96; in assay [2], above 8.00.

Turning to `O=C(NCC1CCOCC1)c1cccc(Cn2cnc3cc(-c4cn[nH]c4C(F)F)ccc3c2=O)c1` [Compound 396], the pIC50 was 7.00 to 7.96 in assay [1] and above 8.00 in assay [2].

For `Cn1nccc1-c1ccc2c(=O)n(Cc3cccc(C(=O)NCC4CCNCC4)c3)ccc2c1` [Compound 169], the pIC50 in assay [1] and in assay [2] was above 8.00 throughout.

Consider `O=C1c2ccc(-c3cn[nH]c3Cl)cc2NCN1[C@H](CO)c1cccc(Cl)c1` [Compound 525], for which the pIC50 in assay [1] is below 6.30; in assay [2], 6.30 to 7.00.

With `NCC(c1cccc(Cl)c1)n1cnc2cc(-c3cn[nH]c3Cl)ccc2c1=O` (centres unmarked) [Compound 496], the pIC50 in assay [1] and in assay [2] was above 8.00 throughout.

As to `[2H]C([2H])([2H])NC(=O)c1cc(F)cc(Cn2cnc3cc(-c4cn[nH]c4C(F)F)ccc3c2=O)c1` [Compound 402], the values for the pIC50 in assay [1] and in assay [2] were 7.00 to 7.96 and above 8.00, respectively.

In the case of `Cn1nccc1-c1ccc2c(=O)n(Cc3cccc(C(=O)NC4COC4)c3)ccc2c1` [Compound 110], the pIC50 is 6.30 to 7.00 in assay [1] and above 8.00 in assay [2].

For `[2H]C([2H])([2H])NC(=O)c1cccc(Cn2cnc3cc(-c4ccnn4C)ccc3c2=O)c1` [Compound 425], the figures for the pIC50 in assay [1] and in assay [2] were 7.00 to 7.96 and above 8.00, respectively.

As for `CNC(=O)c1cccc(Cn2cc(CCN(C)C)c3cc(-c4cn[nH]c4C(F)(F)F)ccc3c2=O)c1` [Compound 548], the pIC50 in assay [1] and in assay [2] was above 8.00 in each case.

The values above are taken from patent US12064426B2, “Selective inhibitors of ROCK1 and ROCK2 protein kinases and uses thereof” (GENOSCO Inc., priority 2021, dated 2024).
